In patent publication US12171755B2, “PAPD5 inhibitors and methods of use thereof” (Children's Medical Center Corporation, priority 2017, dated 2024):

Target: T1, PAPD5 (Homo sapiens, UniProt Q8NDF8)
T1 construct: made in house
Assay: High-throughput luminescence (KinaseGlo) RNA polyadenylation assay, ATP utilization by recombinant PAPD5
Format: biochemical
Details: Table 4 (entries of Table 5), ratio of luminescence with inhibitor to DMSO; for Fold-change determined at compound concentration 33 μM: 33 μM compound; for Fold-change determined at compound concentration 100 μM: 100 μM compound, higher = higher inhibition; for Fold-change determined at compound concentration 10 μM: 10 μM compound
How it was run: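 Recombinant PAPD5 polyadenylates an oligonucleotide substrate using ATP, and remaining ATP is read by KinaseGlo luciferase luminescence. Compound was incubated for 2 h at room temperature, then with luciferase for 10 min.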

T1 sequence (Q8NDF8 68-698 isoform Q8NDF8-5): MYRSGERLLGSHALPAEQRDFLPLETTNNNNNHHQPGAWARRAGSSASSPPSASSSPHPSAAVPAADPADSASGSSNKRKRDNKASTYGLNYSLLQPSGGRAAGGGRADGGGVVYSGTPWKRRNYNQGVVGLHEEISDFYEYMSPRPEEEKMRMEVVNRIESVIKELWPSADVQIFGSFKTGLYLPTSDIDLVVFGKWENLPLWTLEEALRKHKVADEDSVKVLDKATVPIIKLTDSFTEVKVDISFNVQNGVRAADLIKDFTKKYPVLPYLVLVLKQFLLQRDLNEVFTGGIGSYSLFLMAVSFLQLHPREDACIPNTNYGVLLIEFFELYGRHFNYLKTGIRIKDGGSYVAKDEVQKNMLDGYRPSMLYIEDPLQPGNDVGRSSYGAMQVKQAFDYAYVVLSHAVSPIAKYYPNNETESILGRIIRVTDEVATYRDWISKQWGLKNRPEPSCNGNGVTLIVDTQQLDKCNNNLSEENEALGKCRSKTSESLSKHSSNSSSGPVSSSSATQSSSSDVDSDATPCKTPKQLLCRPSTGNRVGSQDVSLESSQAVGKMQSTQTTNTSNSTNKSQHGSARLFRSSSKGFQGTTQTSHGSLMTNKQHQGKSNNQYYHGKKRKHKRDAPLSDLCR

Compound | Fold-change determined at compound concentration 33 μM | Fold-change determined at compound concentration 100 μM | Fold-change determined at compound concentration 10 μM
O=c1c2c([nH]c3nc(CNc4ccc(Br)cc4)nn13)CCC2 [Entry 152, 2-{[(4-bromophenyl)amino]methyl}-4,5,6,7-tetrahydro-8H-cyclopenta[d][1,2,4]triazolo[1,5-a]pyrimidin-8-one] | 1.146 | 1.461 | 
Cc1cc(C)c2c(=O)cc(CSc3nnc(-c4ccccc4)n3C)[nH]c2c1 [Entry 102, 5,7-dimethyl-2-[(4-methyl-5-phenyl-1,2,4-triazol-3-yl)sulfanylmethyl]-1H-quinolin-4-one] | 1.066 | 1.268 | 
NC(=O)CN1c2ccc(F)cc2-c2ccccc2S1(=O)=O [Entry 241, 2-(9-fluoro-5,5-dioxido-6H-dibenzo[c,e][1,2]thiazin-6-yl)acetamide] | 1.099 | 1.249 | 
Cc1ccccc1CNC(=O)Cn1cc2c(n1)-c1c(oc(C(=O)N3CCCC3)c1C)CC2 [Entry 170, N-[(2-methylphenyl)methyl]-2-[8-methyl-7-(pyrrolidine-1-carbonyl)-4,5-dihydrofuro[2,3-g]indazol-2-yl]acetamide] | 1.302 | 1.816 | 
COc1ccc(-c2n[nH]c3nc(-c4cc(OC)c(OC)c(OC)c4)cc(C(=O)O)c23)cc1 [Entry 183, 3-(4-methoxyphenyl)-6-(3,4,5-trimethoxyphenyl)-1H-pyrazolo[3,4-b]pyridine-4-carboxylic acid] | 1.152 | 1.346 | 
COC(=O)c1cnn2c(=O)cc(CS(=O)(=O)c3ccc(C)cc3C)[nH]c12 [Entry 188, Methyl 5-{[(2,4-dimethylphenyl)sulfonyl]methyl}-7-oxo-4,7-dihydropyrazolo[1,5-a]pyrimidine-3-carboxylate] | 1.089 | 1.29 | 
Cn1[nH]c(-c2cccnc2)c2nc(-c3ccccc3OC(F)F)nc1-2 [Entry 227, 5-[2-(difluoromethoxy)phenyl]-1-methyl-3-pyridin-3-yl-2H-imidazo[4,5-c]pyrazole] | 1.097 | 1.425 | 
COc1ccc(CNC(=O)Nc2cn(CC(C)C)c(=O)c3ccccc23)c(OC)c1 [Entry 60a, 1-[(2,4-dimethoxyphenyl)methyl]-3-[2-(2-methylpropyl)-1-oxoisoquinolin-4-yl]urea] | 1.164 | 1.507 | 
c1cc(CNc2ncnc3sc4c(c23)CCCC4)ccn1 [Entry 41, N-(pyridin-4-ylmethyl)-5,6,7,8-tetrahydro[1]benzothieno[2,3-d]pyrimidin-4-amine] | 1.621 | 2.279 | 1.249
NC(=O)C1CCN(c2ncnc3sc4c(c23)CCCC4)CC1 [Entry 43, 1-(5,6,7,8-tetrahydro[1]benzothieno[2,3-d]pyrimidin-4-yl)piperidine-4-carboxamide] | 1.648 | 2.294 | 1.292
CCOC(=O)c1ccc(NC(=O)CCc2c(C)nc3nc[nH]n3c2=O)cc1 [Entry 149, ethyl 4-[3-(5-methyl-7-oxo-1H-[1,2,4]triazolo[1,5-a]pyrimidin-6-yl)propanoylamino]benzoate] | 1.183 | 1.309 | 
Cc1ccc(C(=O)Nc2c(-c3ccccc3)nc3ccccn23)cc1 [Entry 190, 4-methyl-N-(2-phenylimidazo[1,2-a]pyridin-3-yl)benzamide] | 1.309 | 1.482 | 1.214
COCc1c(Br)c(C)nc2sc3c(=O)[nH]nnc3c12 [Entry 166, 8-bromo-9-(methoxymethyl)-7-methylpyrido[3′,2′:4,5]thieno[3,2-d][1,2,3]triazin-4(3H)-one] | 1.128 | 1.321 | 
Cc1ccc2c(=O)cc(CSc3ncn[nH]3)[nH]c2c1C [Entry 107, 7,8-dimethyl-2-(1H-1,2,4-triazol-5-ylsulfanylmethyl)-1H-quinolin-4-one] | 1.319 | 1.883 | 
COc1cccc(C(=O)Nc2nc3nc(-c4ccccc4)cc(=O)n3[nH]2)c1 [Entry 140, 3-methoxy-N-(7-oxo-5-phenyl-1H-[1,2,4]triazolo[1,5-a]pyrimidin-2-yl)benzamide] | 1.329 | 1.91 | 
COc1ccc(Cc2nccc3cc(OC)c(OC)cc23)cc1OC [Entry 237, 1-(3,4-dimethoxybenzyl)-6,7-dimethoxyisoquinoline] | 1.166 | 1.362 | 
CC(C)Cn1c(=O)c2ccccc2n2c(=S)[nH]nc12 [Entry 73, 4-isobutyl-1-thioxo-2,4-dihydro[1,2,4]triazolo[4,3-a]quinazolin-5(1H)-one] | 1.093 | 1.278 | 
CCc1nc2[nH]c(-c3ccc(C)cc3)cc(=O)n2n1 [Entry 158, 2-ethyl-5-(4-methylphenyl)[1,2,4]triazolo[1,5-a]pyrimidin-7(4H)-one] | 1.13 | 1.364 | 
COCCNC(=O)Cn1cc2c(n1)-c1c(oc(C(=O)N3CCCC3)c1C)CC2 [Entry 171, N-(2-methoxyethyl)-2-[8-methyl-7-(pyrrolidine-1-carbonyl)-4,5-dihydrofuro[2,3-g]indazol-2-yl]acetamide] | 1.374 | 1.777 | 
CCc1cccc(NC(=O)Nc2cn(C)c(=O)c3ccccc23)c1 [Entry 61, 1-(3-ethylphenyl)-3-(2-methyl-1-oxoisoquinolin-4-yl)urea] | 1.07 | 1.235 | 
Cc1ccc(CNC(=O)Nc2cn(CC(C)C)c(=O)c3ccccc23)cc1 [Entry 57, 1-[(4-methylphenyl)methyl]-3-[2-(2-methylpropyl)-1-oxoisoquinolin-4-yl]urea] | 1.142 | 1.518 | 
